Molecular target: TLR4 (toll-like receptor 4) (Homo sapiens, UniProt O00206)
Test: TLR4 ELISA on lysates of human PBMCs treated with AVR-25 for […] h, dose response
Format: cell-based

Chain of TLR4 (toll-like receptor 4) (O00206 24-839): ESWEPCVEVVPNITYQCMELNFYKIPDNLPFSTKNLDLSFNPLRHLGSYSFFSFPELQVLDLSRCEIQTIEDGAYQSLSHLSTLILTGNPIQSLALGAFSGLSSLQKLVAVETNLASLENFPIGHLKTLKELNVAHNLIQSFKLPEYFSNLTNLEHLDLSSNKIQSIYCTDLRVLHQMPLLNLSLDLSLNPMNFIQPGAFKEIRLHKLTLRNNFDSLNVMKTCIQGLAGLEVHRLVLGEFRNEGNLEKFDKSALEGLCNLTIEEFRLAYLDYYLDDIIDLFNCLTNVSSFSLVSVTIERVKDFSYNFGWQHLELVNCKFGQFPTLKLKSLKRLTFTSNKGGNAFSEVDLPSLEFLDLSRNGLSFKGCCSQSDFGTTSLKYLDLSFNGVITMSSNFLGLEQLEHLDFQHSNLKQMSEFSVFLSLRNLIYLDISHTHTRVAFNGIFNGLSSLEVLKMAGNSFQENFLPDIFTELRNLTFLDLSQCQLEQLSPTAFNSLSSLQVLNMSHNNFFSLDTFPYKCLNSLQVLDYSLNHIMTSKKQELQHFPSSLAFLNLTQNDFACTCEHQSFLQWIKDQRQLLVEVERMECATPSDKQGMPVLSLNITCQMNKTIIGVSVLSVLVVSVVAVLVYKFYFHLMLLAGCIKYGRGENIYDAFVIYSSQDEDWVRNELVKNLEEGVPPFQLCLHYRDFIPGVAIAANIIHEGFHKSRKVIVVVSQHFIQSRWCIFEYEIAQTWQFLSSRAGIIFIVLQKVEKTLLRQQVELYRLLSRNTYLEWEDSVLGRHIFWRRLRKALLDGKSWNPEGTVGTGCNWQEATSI

- IC50: 150 nM
Structure (SMILES): CC(=O)N[C@H]1[C@H](OC2CCCCC2)O[C@H](CO)[C@@H](O[C@@H]2O[C@H](CO)[C@@H](O)[C@H](O)[C@H]2NC(C)=O)[C@@H]1O [AVR-25, N-((2R,3R,4R,5S,6R)-5-(((2S,3R,4R,5S,6R)-3-acetamido-4,5-dihydroxy-6-(hydroxymethyl)tetrahydro-2H-pyran-2-yl)oxy)-2-(cyclohexyloxy)-4-hydroxy-6-(hydroxymethyl)tetrahydro-2H-pyran-3-yl)acetamide]

From PMC6393422, “Novel Chitohexaose Analog Protects Young and Aged mice from CLP Induced Polymicrobial Sepsis” (Scientific Reports, 2019)
